Assay results taken from PMC13144739, “Global analysis of cancer cell responses to USP9X inhibition” (The EMBO Journal, 2026).

Tests used:
USP9X/USP24 chimera Δβ = target: T1, USP9X/USP24 chimera Δβ (Homo sapiens, UniProt Q93008, A1766S/D1761E/DEL1924-1943/K1759R/L1762V/Y1757F); assay: Ub-Rho cleavage assay, USP9X/USP24 chimera Δβ; format: biochemical
T1 construct: His/SUMO (pOPIN-S vector) (N, cleaved yes); made in house; host or cells: E. coli BL21
Excerpt: An expression construct for the USP9X catalytic domain (aa 1551–1970, […]: Q93008-1), was codon optimised for bacterial expression, synthesised in gBlock format (Integrated DNA Technologies) and cloned into the pOPIN-S vector (Berrow et al, [2007]), which was digested with KpnI and HindIII using In-Fusion™ HD cloning (Takara Clontech). […] For the USP9X Δβ catalytic domain a deletion construct ΔE1924-K1943 and for USP9X/USP24 chimera, a construct with USP9X Y1757-A1766 replaced with the USP24 (NCBI Reference Sequence: NP_056121) aa motif […] was used. All constructs were confirmed by Sanger sequencing (AGRF).
The reaction was stopped through the addition of 10 mM citric acid. The assay was performed in 384-well format with a total reaction volume of 16 µL. Data was collected using the ClarioSTAR plate reader (BMG Labtech) at an emission of 535 nm. […] IC50 values presented in our study are the mean of three independent biological repeats unless indicated otherwise.

USP24 = tested on: T2, USP24; assay: DUB IP-MS in MCF-7 cell lysates, USP24; format: biochemical, human; conditions: 50 µM
T2 construct: endogenous in cells; host or cells: MCF-7 cell lysate
Protocol: MCF-7 cells have been profiled for active DUBs previously (Pinto-Fernández et al, [2019]). Lysates were generated as described by others (Turnbull et al, [2017]) using 30 s freeze-thaw cycles (thrice) in lysis buffer (50 mM Tris [pH 7.4], 5 mM MgCl2 × 6 H2O, 0.5 mM EDTA [pH 8.0], 250 mM sucrose and 1 mM DTT) at pH 7.5. […] A pre-treatment of cell lysates with 0.5 µg Ub-VS was included for a baseline DUB response to the Ub-VS probe. 0.1 µg 3X-FLAG-Ub-VS probe was added to samples and incubated for 5 min at 37 °C. […] Samples were washed thrice with lysis buffer and eluted from the resin with lysis buffer supplemented with 1% (w/v) SDS following a 10 min incubation. Two consecutive elutions were pooled, and samples were stored at −80 °C until processing.
DNA was hydrolysed with the addition of 2 µL neat TFA, and lysates were neutralised to pH 8.5 by the addition of 1 M Tris-HCl as previously described (Dagley et al, [2019]). Protein concentration was determined using Pierce™ BCA Protein Assay Kit (Thermo Fisher Scientific) following the manufacturer’s instructions. For DUB IP-MS, samples were processed using S-Trap spin columns (Profiti) by following the manufacturer’s instructions. […]

lymphoma line SR = assay: NCI-60 cancer cell panel, SR; format: cell-based, human; conditions: 10 µM, 3 days
Protocol: Inhibitors were tested at 10 µM. Data shown is the mean of two technical replicates and is shown relative to the no-drug control, and relative to the time zero number of cells.

UO-31 cells = assay: Colony formation assay, UO-31; format: cell-based, human; conditions: 10 µM, 7–12 days
Protocol: (§1) Cells were seeded at low density (200–4000 cells per well) after initial optimisation in a six-well tissue culture-treated plate (Falcon). Twenty-four hours post seeding, media was replaced, and the inhibitor was added. Cells were left to grow into colonies between 7 and 12 days, depending on the cell line. For analysis, the media was removed, and the cells were fixed with 10% (w/v) formalin for 10 min. Colonies were stained with crystal violet (Sigma-Aldrich, 0.5% [w/v] in 20% [v/v] MeOH) for 10 min and washed thrice with distilled H2O. Plates were imaged using the ChemiDoc imaging system (Bio-Rad) and analysed using the ImageJ ColonyArea plugin as described previously (Guzmán et al, [2014]).

PANC-1 cells = assay: Colony formation assay, PANC-1; format: cell-based, human; conditions: 10 µM, 7–12 days
Protocol: as §1

ACHN cells = assay: Colony formation assay, ACHN; format: cell-based, human; conditions: 10 µM, 7–12 days
Protocol: as §1

HUVEC = assay: Colony formation assay, HUVEC; format: cell-based, human; conditions: 10 µM, 7–12 days
Protocol: as §1

HDFs = assay: Colony formation assay, HDF; format: cell-based, human; conditions: 10 µM, 7–12 days
Protocol: as §1

MDA-MB-231 cells = assay: Lattice light sheet imaging of mitosis, MDA-MB-231; format: cell-based, human; conditions: 15 µM
Protocol: MDA-MB-231, MiaPaca2, HMEC-1, SK-MEL-2 and UO-31 cells were seeded at 2–15 × 10^4 cells/mL in 8-well glass µ-slides (ibidi). […] SPY650-Tubulin, SPY555-DNA (both Spirochrome, Inc.), and Annexin V FITC (Sigma-Aldrich) were added at a final concentration of 1 in 1000. Cells were left to grow for 24 h before time-lapse live-cell data were acquired using a Lattice Light Sheet 7 (Zeiss). […] Aberration correction was set to a value of 170 to minimise aberrations as determined by imaging the Point Spread Function using 100 nm fluorescent microspheres. Data were collected with a frame time of 10 ms and a z step of 0.4 μm with 834 frames per 290 μm by 290 μm. Individual regions were imaged in parallel across six wells of the eight-well chamber slide. Data are presented as Maximum Intensity Projections (MIPs), and these MIPs were used for all downstream analysis. Tile regions were imaged for 24 h with 10 min intervals at 37 °C, 5% CO2. Analysis was performed using the MIPs of the different full fields of cells over the 24–48 h time period. Mitosis and mitosis arrest were classified through a combination of automated image analysis and manual validation. […] Small erroneous detected spots were further removed through a manually adjusted size filter. […] The mean intensity of all tracks was then measured to determine mitosis and mitosis arrest. […]

T1 sequence (Q93008 with tags, fused parts or gaps Y1757F/K1759R/D1761E/L1762V/A1766S/DEL1924-1943): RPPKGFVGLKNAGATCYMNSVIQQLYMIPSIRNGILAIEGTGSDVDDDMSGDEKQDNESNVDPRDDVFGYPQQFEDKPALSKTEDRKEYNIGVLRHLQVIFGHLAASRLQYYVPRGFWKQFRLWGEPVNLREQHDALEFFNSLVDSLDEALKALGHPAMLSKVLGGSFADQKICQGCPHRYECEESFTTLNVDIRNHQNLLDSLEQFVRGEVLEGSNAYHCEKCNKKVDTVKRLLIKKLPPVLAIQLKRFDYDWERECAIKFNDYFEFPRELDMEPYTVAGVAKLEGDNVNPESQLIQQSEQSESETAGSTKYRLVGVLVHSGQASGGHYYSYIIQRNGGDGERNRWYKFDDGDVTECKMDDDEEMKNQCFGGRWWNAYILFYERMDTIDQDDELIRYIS

Cc1[nH]c2ccc(C(=O)N3CCN(S(=O)(=O)c4ccc5c(c4)OCCO5)CC3)cc2c1C [WEHI-092]
activity of USP9X/USP24 chimera Δβ in presence of compound (USP9X/USP24 chimera Δβ): remained fully active at concentrations up to 10 µM | inhibition of USP24 in cell lysates (DUB IP-MS) (USP24): not inhibited | cell killing, SR (lymphoma line SR): cell death | clonogenic potential, UO-31 (UO-31 cells): sensitive | clonogenic potential, PANC-1 (PANC-1 cells): strong decrease in proliferative capacity | clonogenic potential, ACHN (ACHN cells): apparent increase in cell proliferation | clonogenic potential, HUVEC (HUVEC): limited or no effects | clonogenic potential, HDF (HDFs): limited or no effects | apoptosis on metaphase arrest (Annexin V uptake), MDA-MB-231 (MDA-MB-231 cells): did not trigger apoptosis | cell division phenotype, MDA-MB-231 (MDA-MB-231 cells; imaged 24-48 h): significant defects in cell division
